Values of other authors in patent US9775855B2, “Compositions comprising macrolide and tetracycline and their uses” (priority 2011, dated 2017).
Read-outs that look alike come from different tables or passages of the source. Values belong to the molecule of their own block, whether it stands above or below them.

Columns and labels:
[1] = individuals treated for acne for an average of 9 months
[2] = not given; remark: listed apart in the source
[3] = room temperature

Structure (SMILES): CN(C)c1ccc(O)c2c1C[C@H]1C[C@H]3[C@H](N(C)C)C(O)=C(C(N)=O)C(=O)[C@@]3(O)C(O)=C1C2=O [Minocycline]
penetration of the cerebral spinal fluid (CSF) (human beings, compared with doxycycline and other tetracyclines): better than doxycycline and other tetracyclines
crossing the blood-brain barrier (in vivo): capable of crossing the blood-brain barrier
frequency of adverse events [1]: one in a million

solubility in water [2]: sparingly soluble
stability [3]: stable at room temperature
Structure (SMILES): NC(=O)c1cnccn1 [Pyrazinamide, pyrazinecarboxamide]

solubility in water [2]: freely soluble
Structure (SMILES): NNC(=O)c1ccncc1 [Isoniazid, 4-pyridinecarboxylic acid, hydrazide]

solubility in water ([2]; at neutral pH): very slightly soluble
Structure (SMILES): CO[C@H]1/C=C/O[C@@]2(C)Oc3c(C)c(O)c4c(O)c(c(/C=N/N5CCN(C)CC5)c(O)c4c3C2=O)NC(=O)/C(C)=C\C=C\[C@H](C)[C@H](O)[C@@H](C)[C@@H](O)[C@@H](C)[C@H](OC(C)=O)[C@@H]1C [Rifampin, 3-[[(4-methyl-1-piperazinyl)imino]-methyl]-rifamycin]
